Earlier results in patent US20090117076A1, “Methods For Treating Tumor Cells” (priority 2007, published 2009).
Where a name gives a salt, the structure may show the parent alone. Read-outs that look alike come from different tables or passages of the source.

Legend:
[1] = tested on: GIST; conditions: for Median time to progression, historical value: single agent imatinib
[2] = primates

Row | Compound | Overall response rate of tumor necrosis/apoptosis ([1]; human, in vivo) [%] | Median time to progression, historical value ([1]; subgroup with KIT exon 11 mutation) [days] | Median time to progression, historical value ([1]; subgroup without KIT exon 11 mutation) [days] | Abortifacient effect [2]
1 | Cc1ccc(NC(=O)c2ccc(CN3CCN(C)CC3)cc2)cc1Nc1nccc(-c2cccnc2)n1 [imatinib, imatinib mesylate] | 69 | 687 | 200 | –
2 | interferon α-2b | – | – | – | abortifacient
